{"source": "patent US6355799B1", "about": "“Substituted benzene compounds, process for their preparation, and herbicidal and defoliant compositions containing them” (ISK Americas Incorporated, priority 1997, dated 2002)", "type_in_all_cases": "in vivo", "key": {"[1]": {"tested_on": "redroot pigweed (Amaranthus retroflexus, AMARE)", "test": "Pre-emerge test, greenhouse herbicide activity screening", "conditions": "phytotoxicity rating 0-100, 14 days after application", "method_in_brief": "(§1)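 Compounds in acetone were track-sprayed at 15-1000 g ai/ha (187 l/ha) on sandy loam pots: pre-emerge one day after seeding, post-emerge at 2-3 leaf stage with 0.25% v/v non-ionic surfactant. Phytotoxicity was rated 14 days later on a 0 (no damage) to 100 (complete death) scale.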"}, "[2]": {"tested_on": "barnyardgrass (Echinochloa crus-galli, ECHCG)", "test": "Pre-emerge test, greenhouse herbicide activity screening", "conditions": "phytotoxicity rating 0-100, 14 days after application", "method_in_brief": "as §1"}, "[3]": {"tested_on": "common ragweed (Ambrosia artemisizfolia L., AMBEL)", "test": "Pre-emerge test, greenhouse herbicide activity screening", "conditions": "phytotoxicity rating 0-100, 14 days after application", "method_in_brief": "as §1"}, "[4]": {"tested_on": "green foxtail (Setaria viridis, SETVI)", "test": "Pre-emerge test, greenhouse herbicide activity screening", "conditions": "phytotoxicity rating 0-100, 14 days after application", "method_in_brief": "as §1"}, "[5]": {"tested_on": "ivyleaf morningglory (Ipomoea hederacea, IPOHE)", "test": "Pre-emerge test, greenhouse herbicide activity screening", "conditions": "phytotoxicity rating 0-100, 14 days after application", "method_in_brief": "as §1"}, "[6]": {"tested_on": "johnsongrass (Sorghum halepense, SORHA)", "test": "Pre-emerge test, greenhouse herbicide activity screening", "conditions": "phytotoxicity rating 0-100, 14 days after application", "method_in_brief": "as §1"}, "[7]": {"tested_on": "lambsquarters (Chenopodium album, CHEAL)", "test": "Pre-emerge test, greenhouse herbicide activity screening", "conditions": "phytotoxicity rating 0-100, 14 days after application", "method_in_brief": "as §1"}, "[8]": {"tested_on": "large crabgrass (Digitaria sanguinalis, DIGSA)", "test": "Pre-emerge test, greenhouse herbicide activity screening", "conditions": "phytotoxicity rating 0-100, 14 days after application", "method_in_brief": "as §1"}, "[9]": {"tested_on": "sicklepod (Cassia obtusifolia, CASOB)", "test": "Pre-emerge test, greenhouse herbicide activity screening", "conditions": "phytotoxicity rating 0-100, 14 days after application", "method_in_brief": "as §1"}, "[10]": {"tested_on": "velvetleaf (Abutilon theophrasti, ABUTH)", "test": "Pre-emerge test, greenhouse herbicide activity screening", "conditions": "phytotoxicity rating 0-100, 14 days after application", "method_in_brief": "as §1"}, "[11]": {"tested_on": "field corn (Zea mays L., var. Dekalb 535, CORN)", "test": "Pre-emerge test, crop safety", "conditions": "crop damage rating 0-100, 14 days after application", "method_in_brief": "(§2)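 Rating: 0–100 visual injury, 14 DAA. Application: acetone, 187 l/ha, 15–1000 g ai/ha, flat-fan track sprayer with nozzle 40–45 cm above soil or canopy. Post-emerge runs used 0.25% v/v surfactant on 2–3 leaf plants.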"}, "[12]": {"tested_on": "upland rice (Oryza sp., var. Tebonnet, RICE)", "test": "Pre-emerge test, crop safety", "conditions": "crop damage rating 0-100, 14 days after application", "method_in_brief": "as §2"}, "[13]": {"tested_on": "barnyardgrass (Echinochloa crus-galli, ECHCG)", "test": "Post-emerge test, greenhouse herbicide activity screening", "conditions": "post-emerge, 14 days after application, rating scale 0-100", "method_in_brief": "(§3)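 Applied at 15–1000 g ai/ha from acetone in 187 l/ha spray volume. Post-emergence applications included 0.25% v/v non-ionic surfactant and reached plants sown 8–21 days before. Pre-emergence applications were incorporated by surface watering. Efficacy or crop damage was rated on a 0–100 scale after 14 days.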"}, "[14]": {"tested_on": "common ragweed (Ambrosia artemisizfolia L., AMBEL)", "test": "Post-emerge test, greenhouse herbicide activity screening", "conditions": "post-emerge, 14 days after application, rating scale 0-100", "method_in_brief": "as §3"}, "[15]": {"tested_on": "green foxtail (Setaria viridis, SETVI)", "test": "Post-emerge test, greenhouse herbicide activity screening", "conditions": "post-emerge, 14 days after application, rating scale 0-100", "method_in_brief": "as §3"}, "[16]": {"tested_on": "ivyleaf morningglory (Ipomoea hederacea, IPOHE)", "test": "Post-emerge test, greenhouse herbicide activity screening", "conditions": "post-emerge, 14 days after application, rating scale 0-100", "method_in_brief": "as §3"}, "[17]": {"tested_on": "johnsongrass (Sorghum halepense, SORHA)", "test": "Post-emerge test, greenhouse herbicide activity screening", "conditions": "post-emerge, 14 days after application, rating scale 0-100", "method_in_brief": "as §3"}, "[18]": {"tested_on": "lambsquarters (Chenopodium album, CHEAL)", "test": "Post-emerge test, greenhouse herbicide activity screening", "conditions": "post-emerge, 14 days after application, rating scale 0-100", "method_in_brief": "as §3"}, "[19]": {"tested_on": "large crabgrass (Digitaria sanguinalis, DIGSA)", "test": "Post-emerge test, greenhouse herbicide activity screening", "conditions": "post-emerge, 14 days after application, rating scale 0-100", "method_in_brief": "as §3"}, "[20]": {"tested_on": "redroot pigweed (Amaranthus retroflexus, AMARE)", "test": "Post-emerge test, greenhouse herbicide activity screening", "conditions": "post-emerge, 14 days after application", "method_in_brief": "as §3"}, "[21]": {"tested_on": "sicklepod (Cassia obtusifolia, CASOB)", "test": "Post-emerge test, greenhouse herbicide activity screening", "conditions": "post-emerge, 14 days after application, rating scale 0-100", "method_in_brief": "as §3"}, "[22]": {"tested_on": "velvetleaf (Abutilon theophrasti, ABUTH)", "test": "Post-emerge test, greenhouse herbicide activity screening", "conditions": "post-emerge, 14 days after application, rating scale 0-100", "method_in_brief": "as §3"}, "[23]": {"tested_on": "field corn (Zea mays L., var. Dekalb 535, CORN)", "test": "Post-emerge test, crop safety", "conditions": "post-emerge, 14 days after application, rating scale 0-100", "method_in_brief": "as §1"}, "[24]": {"tested_on": "upland rice (Oryza sp., var. Tebonnet, RICE)", "test": "Post-emerge test, crop safety", "conditions": "post-emerge, 14 days after application, rating scale 0-100", "method_in_brief": "as §1"}}}
{"smiles": "COC(=O)N(C(=O)OC)c1c(OC)c(Cl)cc(F)c1-n1c(=O)cc(C(F)(F)F)n(C)c1=O", "note": "[4-2]", "values": [{"measurement": "Pre-emerge Herbicidal Activity AMARE", "setting": "[1]; 63 g ai/ha", "result": 100}, {"measurement": "Pre-emerge Herbicidal Activity AMARE", "setting": "[1]; 250 g ai/ha", "result": 100}, {"measurement": "Pre-emerge Herbicidal Activity ECHCG", "setting": "[2]; 63 g ai/ha", "result": 0}, {"measurement": "Pre-emerge Herbicidal Activity ECHCG", "setting": "[2]; 250 g ai/ha", "result": 80}, {"measurement": "Pre-emerge Herbicidal Activity AMBEL", "setting": "[3]; 63 g ai/ha", "result": 30}, {"measurement": "Pre-emerge Herbicidal Activity AMBEL", "setting": "[3]; 250 g ai/ha", "result": 100}, {"measurement": "Pre-emerge Herbicidal Activity SETVI", "setting": "[4]; 63 g ai/ha", "result": 70}, {"measurement": "Pre-emerge Herbicidal Activity SETVI", "setting": "[4]; 250 g ai/ha", "result": 100}, {"measurement": "Pre-emerge Herbicidal Activity IPOHE", "setting": "[5]; 63 g ai/ha", "result": 0}, {"measurement": "Pre-emerge Herbicidal Activity IPOHE", "setting": "[5]; 250 g ai/ha", "result": 100}, {"measurement": "Pre-emerge Herbicidal Activity SORHA", "setting": "[6]; 63 g ai/ha", "result": 0}, {"measurement": "Pre-emerge Herbicidal Activity SORHA", "setting": "[6]; 250 g ai/ha", "result": 70}, {"measurement": "Pre-emerge Herbicidal Activity CHEAL", "setting": "[7]; 63 g ai/ha", "result": 100}, {"measurement": "Pre-emerge Herbicidal Activity CHEAL", "setting": "[7]; 250 g ai/ha", "result": 100}, {"measurement": "Pre-emerge Herbicidal Activity DIGSA", "setting": "[8]; 63 g ai/ha", "result": 40}, {"measurement": "Pre-emerge Herbicidal Activity DIGSA", "setting": "[8]; 250 g ai/ha", "result": 90}, {"measurement": "Pre-emerge Herbicidal Activity CASOB", "setting": "[9]; 63 g ai/ha", "result": 0}, {"measurement": "Pre-emerge Herbicidal Activity CASOB", "setting": "[9]; 250 g ai/ha", "result": 80}, {"measurement": "Pre-emerge Herbicidal Activity ABUTH", "setting": "[10]; 63 g ai/ha", "result": 100}, {"measurement": "Pre-emerge Herbicidal Activity ABUTH", "setting": "[10]; 250 g ai/ha", "result": 100}, {"measurement": "Pre-emerge Herbicidal Activity CORN", "setting": "[11]; 63 g ai/ha", "result": 0}, {"measurement": "Pre-emerge Herbicidal Activity CORN", "setting": "[11]; 250 g ai/ha", "result": 5}, {"measurement": "Pre-emerge Herbicidal Activity RICE", "setting": "[12]; 63 g ai/ha", "result": 10}, {"measurement": "Pre-emerge Herbicidal Activity RICE", "setting": "[12]; 250 g ai/ha", "result": 20}, {"measurement": "phytotoxicity rating ECHCG", "setting": "[13]; 63 g ai/ha", "result": 0}, {"measurement": "phytotoxicity rating ECHCG", "setting": "[13]; 250 g ai/ha", "result": 0}, {"measurement": "phytotoxicity rating AMBEL", "setting": "[14]; 63 g ai/ha", "result": 0}, {"measurement": "phytotoxicity rating AMBEL", "setting": "[14]; 250 g ai/ha", "result": 30}, {"measurement": "phytotoxicity rating SETVI", "setting": "[15]; 63 g ai/ha", "result": 0}, {"measurement": "phytotoxicity rating SETVI", "setting": "[15]; 250 g ai/ha", "result": 20}, {"measurement": "phytotoxicity rating IPOHE", "setting": "[16]; 63 g ai/ha", "result": 70}, {"measurement": "phytotoxicity rating IPOHE", "setting": "[16]; 250 g ai/ha", "result": 100}, {"measurement": "phytotoxicity rating SORHA", "setting": "[17]; 63 g ai/ha", "result": 0}, {"measurement": "phytotoxicity rating SORHA", "setting": "[17]; 250 g ai/ha", "result": 0}, {"measurement": "phytotoxicity rating CHEAL", "setting": "[18]; 63 g ai/ha", "result": 40}, {"measurement": "phytotoxicity rating CHEAL", "setting": "[18]; 250 g ai/ha", "result": 95}, {"measurement": "phytotoxicity rating DIGSA", "setting": "[19]; 63 g ai/ha", "result": 0}, {"measurement": "phytotoxicity rating DIGSA", "setting": "[19]; 250 g ai/ha", "result": 0}, {"measurement": "phytotoxicity rating AMARE", "setting": "[20]; 63 g ai/ha, rating scale 0-100 (0 no damage, 100 complete death)", "result": 50}, {"measurement": "phytotoxicity rating AMARE", "setting": "[20]; 250 g ai/ha, rating scale 0-100", "result": 85}, {"measurement": "phytotoxicity rating CASOB", "setting": "[21]; 63 g ai/ha", "result": 0}, {"measurement": "phytotoxicity rating CASOB", "setting": "[21]; 250 g ai/ha", "result": 40}, {"measurement": "phytotoxicity rating ABUTH", "setting": "[22]; 63 g ai/ha", "result": 70}, {"measurement": "phytotoxicity rating ABUTH", "setting": "[22]; 250 g ai/ha", "result": 100}, {"measurement": "phytotoxicity rating CORN (crop damage)", "setting": "[23]; 63 g ai/ha", "result": 0}, {"measurement": "phytotoxicity rating CORN (crop damage)", "setting": "[23]; 250 g ai/ha", "result": 10}, {"measurement": "phytotoxicity rating RICE (crop damage)", "setting": "[24]; 63 g ai/ha", "result": 0}, {"measurement": "phytotoxicity rating RICE (crop damage)", "setting": "[24]; 250 g ai/ha", "result": 30}]}
